Experimental data: article PMC9289467, “A Novel Multifunctional 5,6-Dimethoxy-Indanone-Chalcone-Carbamate Hybrids Alleviates Cognitive Decline in Alzheimer’s Disease by Dual Inhibition of Acetylcholinesterase and Inflammation” (Frontiers in Aging Neuroscience, 2022)

How the values were obtained:
recognition memory = test: Novel object recognition task; type: in vivo, APP/PS1 mice
Method: APP/PS1 mice of ages 6 months were randomly divided into vehicle (APP/PS1, n = 10) and treatment groups (AP5, n = 10), which were intragastrically administered with AP5 (40 mg/kg) once daily for consecutive 5 months. AP5 was dissolved in distilled water containing 1% sodium carboxymethyl cellulose.
To investigate whether AP5 treatment plays a key role in cognition improvement of APP/PS1 mice models, the five different behavioral tests were sequentially carried out in the following order: open field, novel object recognition task, spatial object-location task, Y-maze, and Morris water maze (MWM). AP5 was also administered daily during the test periods. […]
(§1) To study the kinetics of Aβ-AChE fibril complex formation, 10 μM Aβ was mixed with AChE (R005282, Roche, Basel, Switzerland) and different concentrations AP5 and incubated with 10 μM ThT and 50 mM glycine-NaOH (pH 8.5) at 37°C, the ThT fluorescence was continually measured for 24 h at 30 min intervals. […] Fluorescence emission at485 nm was measured on a Spectra MAX GeminiXS fluorometerat an excitation wavelength of 450 nm. […]
To assess locomotor activity, mice were individually tested in an open-field box (38 cm × 38 cm × 25 cm). The movement of the mouse was tracked for 5 min with open fieldvideo analysis system, and the total move distances was automatically recorded as adirect measure of locomotor activity. […]

[1] = biological target: T1, AChE-induced Aβ40 fibril formation (Homo sapiens, UniProt P22303); test: ThT kinetics of AChE-induced Aβ40 fibril formation; type: biochemical; details: co-incubation of AP5 and Aβ40 with AChE, 24-h kinetic ThT assay
T1 construct: purchased Roche (AChE); Invitrogen (Aβ40) R005282 (AChE); 03-136 (Aβ40)
Method: (§2) The effects of AP5 on Aβ fibril formation and pre-formed Aβ fibrils disaggregation were determined using a previously described method of Thioflavin T (ThT, T3516, Sigma Aldrich, St. Louis, MO, United States) fluorometry ([Jan et al., 2010]).
(§3) Supplementary materials and methods … ...1 […]
(§4) Supplementary Figure 1 … .....7
(§5) Supplementary Figure 2 … .....7
(§6) Supplementary materials and methods
(§7) Prepations ofspecimen for pharmacokinetics analysis
(§8) 24 h afterdosing. Brains were collected at0, 0.25, 0.5,2, 4,8 and 24 h after administration.Plasma extractions were performed by adding 90 μL methanol and 2 μL internalstandard letrozole (500 ng/mL) to a30 µL plasma sample. […]
(§9) Then 90 μL methanol and 2 μL letrozolewere added to 30 µl brainhomogenates. The samples were vortexed for 3 min and centrifuged 15 min at25,000 g.The plasma and brainhomogenate were analyzed by UPLC-TSQ/MS (Thermo Fisher Scientific, Waltham, MA, USA). […]
as §1

[2] = biological target: T2, pre-formed Aβ40-AChE fibrils complex (Homo sapiens, UniProt P22303); test: Disaggregation of pre-formed Aβ40-AChE fibrils (ThT); type: biochemical; details: Aβ40 pre-aggregated with AChE for 2 days before co-incubation with AP5
T2 construct: purchased Roche (AChE); Invitrogen (Aβ40) R005282 (AChE); 03-136 (Aβ40)
Method: as §2, §3, §4, §5, §6, §7, §8, §9, §1

T2 sequence (P22303 32-614, one chain of several): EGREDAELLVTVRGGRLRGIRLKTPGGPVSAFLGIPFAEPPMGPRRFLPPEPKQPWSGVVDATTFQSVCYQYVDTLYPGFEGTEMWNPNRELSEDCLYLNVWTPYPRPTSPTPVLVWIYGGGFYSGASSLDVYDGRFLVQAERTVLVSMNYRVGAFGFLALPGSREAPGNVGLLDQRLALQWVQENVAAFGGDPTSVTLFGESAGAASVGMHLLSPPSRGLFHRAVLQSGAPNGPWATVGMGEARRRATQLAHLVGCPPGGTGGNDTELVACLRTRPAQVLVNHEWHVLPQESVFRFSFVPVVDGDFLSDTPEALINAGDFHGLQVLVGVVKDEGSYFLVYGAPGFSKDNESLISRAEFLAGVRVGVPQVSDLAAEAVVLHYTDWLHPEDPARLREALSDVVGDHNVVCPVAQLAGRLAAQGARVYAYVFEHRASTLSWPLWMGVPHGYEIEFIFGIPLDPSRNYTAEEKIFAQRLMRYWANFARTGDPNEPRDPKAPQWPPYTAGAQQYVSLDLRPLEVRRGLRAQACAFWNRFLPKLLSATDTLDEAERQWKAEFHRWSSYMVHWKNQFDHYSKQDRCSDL
T1 sequence (P22303 32-614): as the sequence (P22303 32-614, one chain of several) above

SMILES: CCN(C)C(=O)Oc1cccc(/C=C2\Cc3cc(OC)c(OC)cc3C2=O)c1 [AP5, (E)-3-((5,6-dimethoxy-1-oxo-1,3-dihydro-2H-inden-2-ylidene)-methyl)phenylethyl(methyl)carbamate]
- discrimination index, novel object recognition (recognition memory; at 1 h, vs APP/PS1 mice): significantly higher
- discrimination index, novel object recognition (recognition memory; at 24 h, vs APP/PS1 mice without treatment): significantly better
- ThT intensity, AChE-induced Aβ40 fibril formation [1]: substantially lowered the ThT intensity in a dose-dependent manner
- ThT fluorescence intensity, disaggregation of pre-formed Aβ40 fibrils [2]: marked decline of ThT fluorescence intensity
